{"source": "patent US7687054B2", "about": "“Biocompatible compounds for sustained release pharmaceutical drug delivery systems” (3M Innovative Properties Company, priority 1997, dated 2010)", "key": {"[1]": {"system": "antigen (ovalalbumin) challenged guinea pigs", "experiment": "Guinea pig early phase anaphylactic response test (pulmonary dynamic compliance)", "format": "in vivo, male Hartley guinea pigs", "conditions": "inhalation", "description": "Pat. […] Pat. […] Typical inhalation exposure systems were comprised of an aerosol generator, e.g., an MDI, a 150 ml aerosol expansion chamber, and a trachea cannula. Each guinea pig received 4 actuations containing 32 ug drug/actuation. The guinea pigs were antigen (ovalalbumin) challenged at varied times and pulmonary dynamic compliance was tested using a Buxco pulmonary mechanics analyzer (Buxco Electronics, Sharon Conn.) according to the method of Amdur and Mead (The American Journal of Physiology, Vol. 92, pp. 364-368 (1958))."}, "[2]": {"experiment": "Glass transition temperature (Tg) by modulated DSC", "format": "physicochemical", "conditions": "PLA/Drug mole/mole ratio 0 (drug alone)", "description": "(§1) Thermal properties (glass transition, melting, and degradation points; Tg, Tm, Tdeg) were determined utilizing a modulated differential scanning calorimeter (DSC) TA Instruments, New Castle, Del. A linear heating rate of 5° C./minute was applied, with a perturbation amplitude of ±1° C. every 60 seconds. […] The glass transition temperatures (Tg) reported were taken at the midpoint in the change in heat capacity over the step transition, and were evaluated using the reversing signal curve.\nIt will also be recognized that other biologically acceptable molecules (e.g., excipients) which are not the active agent, may be added to improve the matrix material's properties."}, "[3]": {"experiment": "Degradation temperature by modulated DSC (thermal stability)", "description": "as §1\nThe salts were prepared by mixing suitable solutions (e.g., acetone, chloroform, methanol) of the drug and PLA in the desired ratio, followed by evaporation and extensive drying under high vacuum to remove all traces of solvent. […] Bioavailability frequently correlates with the water solubility of the drug-complex. The water solubility of the PHAs is dependent on the molecular weight and the nature of the end groups.\nThe molecular weight of the acylated polymer necessary to provide an insoluble salt is dependent both on the nature of the drug and the end-group used. It will be recognized that the characteristics (MW, distribution, chemical nature, endgroups, etc.) of the polymer counter-ion will be important to the ultimate pharmacokinetics of the drug."}, "[4]": {"system": "tumor necrosis factor (TNF)", "experiment": "TNF levels in lung lavage and serum after inhalation of IMQ MDI formulations", "format": "in vivo, mouse", "conditions": "mice", "description": "Typically, the animals were exposed to 20 actuations per minute for 25 minutes of an MDI generated 2 micron average MMAD aerosol. Lung lavage and bleeding of the exposed mice, were performed by standard methods known to those skilled in the art and tumor necrosis factor (TNF) analyses were performed by an ELISA method specific for TNF in the mouse (Genzyme Immunobiologicals, Cambridge, Mass.). TNF is a marker for this drug's activity. Pulmonary therapy application of IMQ prefers drug activity localized in the lung. Therefore, it was desirable to maintain high levels of drug in the lung and minimize systemic drug. However, this formulation and method could also clearly be used to provide long term release of IMQ or analogous compounds for systemic applications. The lavage numbers are measurements of TNF levels in the lung while the serum levels measure systemic TNF levels."}, "[5]": {"conditions": "PLA/Drug molar ratio 0 (drug alone)"}}, "note": "Counter-ions that a name gives are not always drawn. Like-named read-outs stand apart in the source and are kept apart here.", "data": [{"compound": "CCC(CC)N(O)C(=O)Nc1ccccc1", "note": "[Example 5LO]", "values": [{"measurement": "Percent Inhibition of Bronchoconstriction", "setting": "[1]; challenge 15 minutes after dosing", "value": 67, "unit": "%"}, {"measurement": "Percent Inhibition of Bronchoconstriction", "setting": "[1]; challenge 30 minutes after dosing", "value": 48, "unit": "%"}, {"measurement": "Percent Inhibition of Bronchoconstriction", "setting": "[1]; challenge 60 minutes after dosing", "value": 4, "unit": "%"}]}, {"compound": "CC(C)(C)NCC(O)c1ccc(O)c(CO)c1", "note": "(stereo not drawn) [Albuterol base]", "values": [{"measurement": "Tg", "setting": "[2]", "value": 48.9, "unit": "°C"}]}, {"compound": "CCN(CC)CC(=O)Nc1c(C)cccc1C", "note": "[Lidocaine]", "values": [{"measurement": "Tg", "setting": "[2]", "value": "none"}, {"measurement": "Degradation Temperature", "setting": "[3]; [5]", "value": 159, "unit": "°C"}]}, {"compound": "Cc1nc2c(N)nc3ccccc3c2n1CC(C)(C)O", "note": "[IMQ alone]", "values": [{"measurement": "TNF level, Lavage", "setting": "[4]; 0 hours after dosing", "value": 40, "unit": "pg/mL"}, {"measurement": "TNF level, Serum", "setting": "[4]; 0 hours after dosing", "value": 13, "unit": "pg/mL"}, {"measurement": "TNF level, Lavage", "setting": "[4]; 1 hour after dosing", "value": 105, "unit": "pg/mL"}, {"measurement": "TNF level, Serum", "setting": "[4]; 1 hour after dosing", "value": 6, "unit": "pg/mL"}, {"measurement": "TNF level, Lavage", "setting": "[4]; 2 hours after dosing", "value": 213, "unit": "pg/mL"}, {"measurement": "TNF level, Serum", "setting": "[4]; 2 hours after dosing", "value": 193, "unit": "pg/mL"}, {"measurement": "TNF level, Lavage", "setting": "[4]; 4 hours after dosing", "value": 144, "unit": "pg/mL"}, {"measurement": "TNF level, Serum", "setting": "[4]; 4 hours after dosing", "value": 577, "unit": "pg/mL"}]}, {"compound": "[H]/N=C(\\N/C(=N/[H])NCCCCCCNC(=N)NC(=N)Nc1ccc(Cl)cc1)Nc1ccc(Cl)cc1", "note": "[Chlorhexidine base]", "values": [{"measurement": "Tg", "setting": "[2]", "value": 38.5, "unit": "°C"}, {"measurement": "Degradation Temperature", "setting": "[3]; [5]", "value": ">225", "unit": "°C"}]}, {"compound": "CN(C)[C@@H]1C(O)=C(C(N)=O)C(=O)[C@@]2(O)C(O)=C3C(=O)c4c(O)cccc4[C@@](C)(O)[C@H]3C[C@@H]12", "note": "[Tetracycline HCl]", "values": [{"measurement": "Tg", "setting": "[2]", "value": 50.5, "unit": "°C"}]}, {"compound": "acetyl-poly (L-lactic acid) [Example 7]", "values": [{"measurement": "Degradation Temperature", "setting": "[3]", "value": ">225", "unit": "°C"}]}, {"compound": "CN(C)[C@@H]1C(O)=C(C(N)=O)C(=O)[C@@]2(O)C(O)=C3C(=O)c4c(O)cccc4[C@@](C)(O)[C@H]3C[C@@H]12", "note": "[Tetracycline]", "values": [{"measurement": "Degradation Temperature", "setting": "[3]; [5]", "value": 179, "unit": "°C"}]}, {"compound": "CCN(CC)CC(=O)Nc1c(C)cccc1C", "note": "[Lidocaine HCl]", "values": [{"measurement": "Tg", "setting": "[2]; HCl", "value": 30.7, "unit": "°C"}]}, {"compound": "Albuterol sulfate", "values": [{"measurement": "Tg", "setting": "[2]", "value": 49, "unit": "°C"}]}]}
